Measurements taken from patent US20250152585A1, “PHARMACEUTICAL COMPOUND” (Duke Street Bio Limited, priority 2022, published 2025).
Like-named read-outs stand apart in the source and are kept apart here.

Assays:
[1] = molecular target: T1, N-terminally FLAG-tagged PARP2 (amino acids 1-583) (Homo sapiens, UniProt Q9UGN5); experiment: PARP2 probe displacement HTRF assay; type: binding; settings: binned Kd
T1 construct: N-terminally FLAG-tagged PARP2 (amino acids 1-583)
Experimental: Data analysis was performed identical as for PARP1.

[2] = molecular target: T2, full length N-terminally FLAG-tagged PARP1 (Homo sapiens, UniProt P09874); experiment: PARP1 biochemical DELFIA assay (auto-PARylation); design: recombinant full length human N-terminally FLAG-tagged PARP1
T2 sequence (P09874 whole entry): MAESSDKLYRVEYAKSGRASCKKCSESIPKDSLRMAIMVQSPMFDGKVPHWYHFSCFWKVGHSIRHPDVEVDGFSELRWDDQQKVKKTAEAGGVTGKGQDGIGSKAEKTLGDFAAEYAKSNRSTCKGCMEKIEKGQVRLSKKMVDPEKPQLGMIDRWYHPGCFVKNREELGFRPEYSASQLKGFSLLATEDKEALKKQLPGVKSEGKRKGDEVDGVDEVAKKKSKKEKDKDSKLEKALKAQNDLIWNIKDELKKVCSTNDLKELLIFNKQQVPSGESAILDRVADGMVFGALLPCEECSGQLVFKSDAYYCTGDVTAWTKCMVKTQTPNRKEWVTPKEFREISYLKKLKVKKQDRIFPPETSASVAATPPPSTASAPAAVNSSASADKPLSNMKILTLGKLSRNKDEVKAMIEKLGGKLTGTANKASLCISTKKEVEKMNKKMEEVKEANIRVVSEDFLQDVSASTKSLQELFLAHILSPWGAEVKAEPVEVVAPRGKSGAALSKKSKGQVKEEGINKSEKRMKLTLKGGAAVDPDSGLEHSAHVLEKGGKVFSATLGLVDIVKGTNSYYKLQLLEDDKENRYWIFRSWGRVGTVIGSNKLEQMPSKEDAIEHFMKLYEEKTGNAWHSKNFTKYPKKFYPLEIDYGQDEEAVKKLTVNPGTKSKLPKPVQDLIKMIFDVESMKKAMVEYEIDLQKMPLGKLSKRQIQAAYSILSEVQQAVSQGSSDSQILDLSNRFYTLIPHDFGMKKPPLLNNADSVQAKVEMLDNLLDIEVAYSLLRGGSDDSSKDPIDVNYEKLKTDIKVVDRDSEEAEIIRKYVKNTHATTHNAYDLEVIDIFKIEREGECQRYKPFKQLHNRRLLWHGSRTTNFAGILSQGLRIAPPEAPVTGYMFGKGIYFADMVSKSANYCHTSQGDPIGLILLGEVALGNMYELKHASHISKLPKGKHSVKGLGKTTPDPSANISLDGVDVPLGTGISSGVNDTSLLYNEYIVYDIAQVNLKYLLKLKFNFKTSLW

[3] = molecular target: T2, full length N-terminally FLAG-tagged PARP1; experiment: PARP1 probe displacement HTRF assay; settings: for Selectivity: PARP1 over PARP2, ratio Kd (PARP2)/Kd (PARP1); for Kd: binned Kd
[4] = binned IC50, biochemical auto-PARylation assay
[5] = read-out: PARP1 HTRF, probe displacement HTRF
[6] = binned IC50, PARP1 biochemical DELFIA assay
[7] = read-out: PARP1 HTRF, PARP1 probe displacement HTRF

T1 sequence (Q9UGN5 whole entry, the tested form may be a part): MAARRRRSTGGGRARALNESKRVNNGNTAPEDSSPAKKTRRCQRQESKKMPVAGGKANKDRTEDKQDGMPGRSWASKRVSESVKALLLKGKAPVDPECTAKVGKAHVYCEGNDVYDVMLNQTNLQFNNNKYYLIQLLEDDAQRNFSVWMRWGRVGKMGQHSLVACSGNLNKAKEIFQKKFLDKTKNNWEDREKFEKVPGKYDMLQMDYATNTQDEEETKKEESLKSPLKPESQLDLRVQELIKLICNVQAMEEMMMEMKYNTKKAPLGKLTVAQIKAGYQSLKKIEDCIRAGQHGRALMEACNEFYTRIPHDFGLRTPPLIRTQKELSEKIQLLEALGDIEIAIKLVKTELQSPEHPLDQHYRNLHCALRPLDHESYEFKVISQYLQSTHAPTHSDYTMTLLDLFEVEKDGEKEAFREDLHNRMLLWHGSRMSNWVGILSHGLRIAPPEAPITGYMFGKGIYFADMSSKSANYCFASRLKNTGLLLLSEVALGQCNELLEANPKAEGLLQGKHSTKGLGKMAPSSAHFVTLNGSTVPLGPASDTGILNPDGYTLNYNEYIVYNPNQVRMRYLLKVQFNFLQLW

Kd ([1]; probe displacement HTRF)	IC50 [2, 4]	Kd [3, 5]	Kd ([1]; PARP2 probe displacement HTRF)	IC50 [2, 6]	Kd [3, 7]	Kd ([3]; PARP1 HTRF, PARP1 probe displacement HTRF)	Compound	Selectivity ([3]; probe displacement HTRF)
> 10000 nM	10 to 100 nM	10 to 100 nM	–	–	–	–	CNC(=O)c1ncc(N2CCC(N3CCC(c4cc5ccc(F)cc5c(=O)[nH]4)C3)CC2)c(C(F)(F)F)n1 (single isomer, unassigned) [Compound 266b]	+++ (+++ indicate a value of at least 100)
–	–	–	100 to 1000 nM	10 to 100 nM	10 to 100 nM	–	CNC(=O)c1ccc(N2CCC(N3CCC(c4nc5c(c(=O)[nH]4)CCCC5)C3)CC2)cn1 (single isomer, unassigned) [Compound 155a]	+ (+ indicates a value of 10 to less than 50)
–	–	–	100 to 1000 nM	10 to 100 nM	10 to 100 nM	–	CNC(=O)c1ccc(N2CCC(N3CCC(c4nc5cccc(F)c5c(=O)[nH]4)C3)CC2)cn1 (single isomer, unassigned) [Compound 101a]	+ (+ indicates a value of 10 to less than 50)
–	–	–	1000 to 10000 nM	10 to 100 nM	10 to 100 nM	–	CNC(=O)c1ccc(N2CCC(N3CCC(c4cc5cccc(Cl)c5c(=O)[nH]4)C3)CC2)cn1 (single isomer, unassigned) [Compound 128a]	+++ (+++ indicate a value of at least 100)
1000 to 10000 nM	100 to 1000 nM	100 to 1000 nM	–	–	–	–	CNC(=O)c1csc(N2CCC(N3CCC(c4cc5ccccc5c(=O)[nH]4)C3)CC2)n1 (single isomer, unassigned) [Compound 274a]	− (− indicates a value of less than 10)
–	–	–	1000 to 10000 nM	< 10 nM	< 10 nM	–	CNC(=O)c1ccc(N2CCC(N3CCC(c4ccc(C5CC5)c(=O)[nH]4)C3)CC2)cn1 (racemic) [Compound 141rac]	+++ (+++ indicate a value of at least 100)
–	–	–	> 10000 nM	< 10 nM	< 10 nM	–	CCc1ccc(C2CCN(C3CCN(c4ccc(C(=O)NC)nc4F)CC3)C2)[nH]c1=O (single isomer, unassigned) [Compound 151b, 5-(4-(3-(5-ethyl-6-oxo-1,6-dihydropyridin-2-yl)pyrrolidin-1-yl)piperidin-1-yl)-6-fluoro-N-methylpicolinamide]	+++ (+++ indicate a value of at least 100)
–	–	–	1000 to 10000 nM	10 to 100 nM	10 to 100 nM	–	O=C(NCC(F)(F)F)c1ccc(N2CCC(N3CCCC(c4nc5ccccc5c(=O)[nH]4)C3)CC2)cn1 (single isomer, unassigned) [Compound 115b]	+++ (+++ indicate a value of at least 100)
–	–	–	1000 to 10000 nM	< 10 nM	< 10 nM	–	CNC(=O)c1ccc(N2CCC(N3CCC(c4ccc(OC)c(=O)[nH]4)C3)CC2)c(C(F)(F)F)n1 (single isomer, unassigned) [Compound 152a]	+++ (+++ indicate a value of at least 100)
1000 to 10000 nM	10 to 100 nM	< 10 nM	–	–	–	–	CNC(=O)c1ccc(N2CCC(N3CCC(c4cc5cc(O)ccc5c(=O)[nH]4)C3)CC2)cn1 (single isomer, unassigned) [Compound 357b]	+++ (+++ indicate a value of at least 100)
> 10000 nM	1000 to 10000 nM	1000 to 10000 nM	–	–	–	–	CNC(=O)c1ccc(N2CCC(N3CCC(c4cnc(C(F)(F)F)c(=O)[nH]4)C3)CC2)cn1 (single isomer, unassigned) [Compound 279b]	− (− indicates a value of less than 10)
1000 to 10000 nM	< 10 nM	10 to 100 nM	–	–	–	–	CNC(=O)c1ccc(N2CCC(N3CCC(c4cc5cc(OC)ccc5c(=O)[nH]4)C3)CC2)cn1 (racemic) [Compound 334rac]	++ (++ indicates a value of 50 to less than 100)
–	–	–	> 10000 nM	< 10 nM	–	< 10 nM	CNC(=O)c1ccc(N2CCC(N3CCCC(c4nc5ccccc5c(=O)[nH]4)C3)CC2)cn1 (single isomer, unassigned) [Compound 6a, N-methyl-5-(3-(4-oxo-3,4-dihydroquinazolin-2-yl)-[1,4′-bipiperidin]-1′-yl)picolinamide]	+++ (+++ indicate a value of at least 100)
–	–	–	10 to 100 nM	< 10 nM	< 10 nM	–	CNC(=O)c1ccc(N2CCC(N3CCC(c4nc5cccc(Cl)c5c(=O)[nH]4)C3)CC2)cn1 (single isomer, unassigned) [Compound 85b]	++ (++ indicates a value of 50 to less than 100)
–	–	–	100 to 1000 nM	< 10 nM	< 10 nM	–	CNC(=O)c1ccc(N2CCC(N3CCCC(c4cc5ccccc5c(=O)[nH]4)C3)CC2)cn1 (single isomer, unassigned) [Compound 100a]	+++ (+++ indicate a value of at least 100)
–	–	–	> 10000 nM	< 10 nM	10 to 100 nM	–	CCNC(=O)c1ccc(N2CCC(N3CCCC(c4nc5ccccc5c(=O)[nH]4)C3)CC2)cn1 (single isomer, unassigned) [Compound 122a]	+++ (+++ indicate a value of at least 100)

Kd ([1]; probe displacement HTRF)	IC50 [2, 4]	Kd [3, 5]	Kd ([1]; PARP2 probe displacement HTRF)	IC50 [2, 6]	Kd [3, 7]	Kd ([3]; PARP1 HTRF, PARP1 probe displacement HTRF)	Compound	Selectivity ([3]; probe displacement HTRF)
> 10000 nM	100 to 1000 nM	100 to 1000 nM	–	–	–	–	CCc1ccc(C2CCN(C3CCN(c4cnc(C(=O)NC)nc4C)CC3)C2)[nH]c1=O (single isomer, unassigned) [Compound 246a]	+ (+ indicates a value of 10 to less than 50)
–	–	–	1000 to 10000 nM	100 to 1000 nM	100 to 1000 nM	–	CNC(=O)c1ccc(N2CCC(N3CCCC(c4nc5c(F)cccc5c(=O)[nH]4)C3)CC2)cn1 (single isomer, unassigned) [Compound 114b]	+ (+ indicates a value of 10 to less than 50)
10 to 100 nM	< 10 nM	< 10 nM	–	–	–	–	O=c1[nH]c(C2CCN(C3CCN(c4ccc(OC(F)F)nc4)CC3)C2)cc2ccc(F)cc12 (single isomer, unassigned) [Compound 374b]	++ (++ indicates a value of 50 to less than 100)
–	–	–	> 10000 nM	10 to 100 nM	10 to 100 nM	–	CNC(=O)c1ccc(N2CCC(N3CCC(c4cc5nccc(N)c5c(=O)[nH]4)C3)CC2)cn1 (racemic) [Compound 200rac]	+++ (+++ indicate a value of at least 100)
1000 to 10000 nM	< 10 nM	< 10 nM	–	–	–	–	N#Cc1ccc(N2CCC(N3CCC(c4cc5ccc(F)cc5c(=O)[nH]4)C3)CC2)c(Cl)c1 (single isomer, unassigned) [Compound 386b]	+++ (+++ indicate a value of at least 100)
–	–	–	10 to 100 nM	< 10 nM	< 10 nM	–	CNC(=O)c1ccc(N2CCC(N3CCC(c4cc5c(F)cccc5c(=O)[nH]4)C3)CC2)cn1 (single isomer, unassigned) [Compound 172b]	+++ (+++ indicate a value of at least 100)
100 to 1000 nM	< 10 nM	< 10 nM	–	–	–	–	CNC(=O)c1cc(C(F)(F)F)c(N2CCC(N3CCC(c4cc5cccc(F)c5c(=O)[nH]4)C3)CC2)cn1 (single isomer, unassigned) [Compound 308b]	+++ (+++ indicate a value of at least 100)
10 to 100 nM	< 10 nM	< 10 nM	–	–	–	–	CNC(=O)c1cc(F)c(N2CCC(N3CCC(c4cc5ccc(F)cc5c(=O)[nH]4)C3)CC2)cn1 (racemic) [Compound 235rac]	+ (+ indicates a value of 10 to less than 50)
–	–	–	1000 to 10000 nM	10 to 100 nM	10 to 100 nM	–	CNC(=O)c1ccc(N2CCC(N3CCC(O)(c4nc5ccccc5c(=O)[nH]4)C3)CC2)cn1 (single isomer, unassigned) [Compound 140b]	+++ (+++ indicate a value of at least 100)
–	–	–	1000 to 10000 nM	10 to 100 nM	10 to 100 nM	–	CNC(=O)c1ccc(N2CCC(N3CCC(c4cc5ccc(F)cc5c(=O)[nH]4)C3)CC2)nn1 (single isomer, unassigned) [Compound 197b]	+++ (+++ indicate a value of at least 100)
–	–	–	1000 to 10000 nM	1000 to 10000 nM	1000 to 10000 nM	–	CNC(=O)c1ccc(N2CC(N3CCCC(Cc4nc5ccccc5c(=O)[nH]4)C3)C2)cn1 (single isomer, unassigned) [Compound 51b]	− (− indicates a value of less than 10)
100 to 1000 nM	< 10 nM	< 10 nM	–	–	–	–	CNC(=O)c1cc(Cl)c(N2CCC(N3CCC(c4cc5cccc(F)c5c(=O)[nH]4)C3)CC2)cn1 (racemic) [Compound 248rac]	+++ (+++ indicate a value of at least 100)
–	–	–	> 10000 nM	100 to 1000 nM	100 to 1000 nM	–	CNC(=O)c1ccc(N2CCC(N3CCCC(c4nc5ccncc5c(=O)[nH]4)C3)CC2)cn1 (single isomer, unassigned) [Compound 93a]	+ (+ indicates a value of 10 to less than 50)
–	–	–	1000 to 10000 nM	< 10 nM	10 to 100 nM	–	CNC(=O)c1ccc(N2CCC(N3CCC(c4nc5ccccc5c(=O)[nH]4)C3)CC2)nc1 (single isomer, unassigned) [Compound 46a]	+++ (+++ indicate a value of at least 100)
–	–	–	1000 to 10000 nM	< 10 nM	< 10 nM	–	CNC(=O)c1ccc(N2CCC(N3CCCC(c4nc5ccccc5c(=O)[nH]4)C3)CC2)c(F)n1 (racemic) [Compound 103rac]	+++ (+++ indicate a value of at least 100)
100 to 1000 nM	< 10 nM	< 10 nM	–	–	–	–	CNC(=O)c1ccc(N2CCC(N3CCC(c4cc5cccc(F)c5c(=O)[nH]4)C3)CC2)c(C#N)c1 (single isomer, unassigned) [Compound 345a]	+++ (+++ indicate a value of at least 100)
